Drawing on ChEMBL document CHEMBL1133392, “Synthesis of a dihydroxythiophene analogue of catechosporines” (2000), this text covers MIC for four molecules.

Values after ≈ are worked out from the molar mass of the structure shown.

One experiment relates to Pseudomonas aeruginosa. The experiment can be described thus: In vitro for minimum inhibitory concentration against Pseudomonas aeruginosa (40 strains). In kind it is functional.
In another experiment the test system is Staphylococcus aureus. The experiment can be described thus: In vitro minimum inhibitory concentration against Staphylococcus aureus (20 strains). In kind it is functional.

Consider `N#Cc1sc(C(O/N=C(\C(=O)N[C@@H]2C(=O)N3C(C(=O)[O-])C(/C=C/C[n+]4cccc5ccccc54)CS[C@H]23)c2csc(N)n2)C(=O)O)c(O)c1O` (stereo partly drawn), for which the MIC stood at 38 µg/mL (≈ 51.6 µM) in the experiment on Pseudomonas aeruginosa and 0.17 µg/mL (≈ 0.231 µM) with Staphylococcus aureus.

On to `Nc1nc(/C(=N/OC(C(=O)O)c2cc(O)c(O)cn2)C(=O)N[C@@H]2C(=O)N3C(C(=O)[O-])C(/C=C/C[n+]4cccc5ccsc54)CS[C@H]23)cs1` (stereo partly drawn), for which the MIC in the experiment with Pseudomonas aeruginosa worked out at 3.12 µg/mL (≈ 4.38 µM); against Staphylococcus aureus, 0.92 µg/mL (≈ 1.29 µM).

Consider `N#Cc1ccc(C(O/N=C(\C(=O)N[C@@H]2C(=O)N3C(C(=O)[O-])C(/C=C/C[n+]4cccc5ccsc54)CS[C@H]23)c2csc(N)n2)C(=O)O)c(O)c1O` (stereo partly drawn), for which the MIC turned out to be 0.12 µg/mL (≈ 0.163 µM) with Pseudomonas aeruginosa and 3.6 µg/mL (≈ 4.89 µM) with Staphylococcus aureus.

Regarding `N#Cc1cc(C(O/N=C(\C(=O)N[C@@H]2C(=O)N3C(C(=O)[O-])C(/C=C/C[n+]4cccc5ccsc54)CS[C@H]23)c2csc(N)n2)C(=O)O)cc(O)c1O` (stereo partly drawn), the MIC against Pseudomonas aeruginosa amounted to 0.06 µg/mL (≈ 0.0815 µM); against Staphylococcus aureus it was 1.4 µg/mL (≈ 1.9 µM).

In general, MIC refers to the least concentration at which growth counts as inhibited.
